Values after ≈ are worked out from the molar mass of the structure shown. Read-outs that look alike come from different tables or passages of the source.
Assays:
[1] = tested on: S. dublin S7; assay: MIC against veterinary bacteria in vitro; details: Salmonella enterica, S7, 18 h
Method: (§1) The activity of the compounds of the Examples against various veterinarily important bacteria, was assayed in vitro using two-fold serial dilutions in Diagnostic Sensitivity Test Agar inoculated with 10^4 organisms.

[2] = tested on: M. suipneumoniae NB12; assay: MIC against mycoplasma in vitro; assay type: cell-based; details: Mesomycoplasma hyopneumoniae
[3] = tested on: M. bovigenitalium ATCC 14173; assay: MIC against mycoplasma in vitro; assay type: cell-based; details: 144 h
[4] = tested on: E. coli NCTC 10418; assay: MIC against human bacteria in vitro; assay type: cell-based; details: Escherichia coli, NCTC10418; E. coli NCTC 10418; agar with 5% chocolated horse blood, 18 hours, 37° C.; read-out: MIC
[5] = tested on: M. suipneumoniae Str. 11; assay: MIC against mycoplasma in vitro; assay type: cell-based; details: Mesomycoplasma hyopneumoniae
[6] = tested on: Strep. agalactiae 2788-B; assay: MIC against human bacteria in vitro; assay type: cell-based; details: Streptococcus agalactiae; Strep. agalactiae 2788-B; 5% chocolated horse blood agar, 18 hours; read-out: MIC
[7] = tested on: Past. multocida PA1; assay: MIC against veterinary bacteria in vitro; details: Pasteurella multocida, PA1, 18 h
Method: as §1

[8] = tested on: Haemophilus influenzae Wy21; assay: MIC against human bacteria in vitro; assay type: cell-based
[9] = tested on: Haemophilus influenzae Q1; assay: MIC against human bacteria in vitro; assay type: cell-based; details: Haemophilus influenzae Q1; 5% chocolated horse blood agar, 18 hours; read-out: MIC
[10] = tested on: Ps. aeruginosa NCTC 10662; assay: MIC against human bacteria in vitro; assay type: cell-based; details: Pseudomonas aeruginosa, NCTC10662; Ps. aeruginosa NCTC 10662; 5% chocolated horse blood agar, 18 hours; read-out: MIC
[11] = tested on: Erysipelothrix rhusiopathiae NCTC 8163; assay: MIC against veterinary bacteria in vitro; details: Erysipelothrix rhusiopathiae, NCTC8163, 18 h
Method: as §1

[12] = tested on: Bord. bronchiseptica B09; assay: MIC against veterinary bacteria in vitro; details: Bordetella bronchiseptica, B09, 18 h
Method: as §1

[13] = tested on: Strep. dysgalactiae SPD1; assay: MIC against veterinary bacteria in vitro; details: Streptococcus dysgalactiae, SPD1, 18 h
Method: as §1

[14] = tested on: M. suipneumoniae PW/C/210; assay: MIC against mycoplasma in vitro; assay type: cell-based; details: Mesomycoplasma hyopneumoniae, 144 h
[15] = tested on: M. bovis NCTC 10131; assay: microbe, parasite or virus in culture; assay type: cell-based; details: NCTC10131, 144 h
[16] = tested on: M. gallisepticum S6; assay: MIC against mycoplasma in vitro; assay type: cell-based; details: Mycoplasmoides gallisepticum, 144 h; M. gallisepticum S6; 6 days, 37° C.; read-out: MIC
[17] = tested on: Corynebacterium xerosis 9755; assay: MIC against human bacteria in vitro; assay type: cell-based; details: Corynebacterium xerosis 9755; 5% chocolated horse blood agar, 18 hours; read-out: MIC
[18] = tested on: Staph. aureus Oxford; assay: MIC against veterinary bacteria in vitro; details: Staphylococcus aureus, 18 h
Method: as §1

[19] = tested on: Corynebacterium pyogenes CY1; assay: MIC against veterinary bacteria in vitro; details: CY1, 18 h
Method: as §1

[20] = tested on: E. coli NCTC 10418; assay: MIC against veterinary bacteria in vitro; details: Escherichia coli, NCTC10418, 18 h
Method: as §1

[21] = tested on: M. suipneumoniae UCD 1; assay: MIC against mycoplasma in vitro; assay type: cell-based; details: Mesomycoplasma hyopneumoniae, UCD1, 144 h
[22] = tested on: Strep. agalactiae SPA1; assay: MIC against veterinary bacteria in vitro; details: Streptococcus agalactiae, SPA1, 18 h
Method: as §1

[23] = tested on: Past. haemolytica PA5; assay: MIC against veterinary bacteria in vitro; details: Mannheimia haemolytica, PA5, 18 h
Method: as §1

[24] = 144 h, M. suipneumoniae NB12, Friis broth, 0.9% agarose, 6 days, 37° C., read-out: MIC
[25] = M. bovigenitalium ATCC 14173, 6 days, 37° C., read-out: MIC
[26] = 144 h, M. suipneumoniae Str. 11, 6 days, 37° C., read-out: MIC
[27] = Haemophilus influenzae Wy21, 5% chocolated horse blood agar, 18 hours, read-out: MIC
[28] = M. suipneumoniae PW/C/210, 6 days, 37° C., read-out: MIC
[29] = M. suipneumoniae UCD 1, 6 days, 37° C., read-out: MIC

SMILES	MIC [1] [µg/mL]	MIC [2, 24] [µg/mL]	MIC [4] [µg/mL]	MIC [5, 26] [µg/mL]	MIC [6] [µg/mL]	MIC [7] [µg/mL]	MIC [8, 27] [µg/mL]	MIC [9] [µg/mL]	MIC [10] [µg/mL]	MIC [11] [µg/mL]	MIC [12] [µg/mL]	MIC [13] [µg/mL]	MIC [15] [µg/mL]	MIC [16] [µg/mL]	MIC [17] [µg/mL]	MIC [18] [µg/mL]	MIC [19] [µg/mL]	MIC [20] [µg/mL]	MIC [22] [µg/mL]	MIC [23] [µg/mL]	also measured
C/C(=C\c1ncc(-c2ccc([S+](C)[O-])cc2)o1)C[C@@H]1OC[C@H](C[C@@H]2O[C@H]2[C@@H](C)[C@H](C)O)[C@@H](O)[C@H]1O (some centres unmarked) [Example 11, 5-p-Methylsulphinylphenyl-2-(1-normon-2-yl) oxazole A]	> 80	0.1 (≈ 0.198 µM)	> 128	0.1 (≈ 0.198 µM)	4 (≈ 7.91 µM)	5 (≈ 9.89 µM)	4 (≈ 7.91 µM)	2 (≈ 3.96 µM)	> 128	> 80	40 (≈ 79.1 µM)	1.25 (≈ 2.47 µM)	≤ 0.01	0.5 (≈ 0.989 µM)	> 128	2.5 (≈ 4.94 µM)	> 80	> 80	2.5 (≈ 4.94 µM)	40 (≈ 79.1 µM)	MIC [3, 25]: 0.1 µg/mL (≈ 0.198 µM); MIC [14, 28]: 0.1 µg/mL (≈ 0.198 µM); MIC [21, 29]: 0.25 µg/mL (≈ 0.494 µM)
C/C(=C\c1ncc(CCCCCCCC(=O)O)o1)C[C@@H]1OC[C@H](C[C@@H]2O[C@H]2[C@@H](C)[C@H](C)O)[C@@H](O)[C@H]1O [Example 12, Sodium 8-[2-(1-normon-2-yl)-5-oxazolyl]-octanoate A]	> 40	> 10	> 16	10	16	2.5	2	1	> 16	> 40	20	0.625	0.05	> 10	> 16	0.625	> 40	> 40	20	40	MIC [3, 25]: 1 µg/mL; MIC [14, 28]: 10 µg/mL; MIC [21, 29]: > 10 µg/mL
C/C(=C\c1ncc(-c2ccc(CO)cc2)o1)C[C@@H]1OC[C@H](C[C@@H]2O[C@H]2[C@@H](C)[C@H](C)O)[C@@H](O)[C@H]1O [Example 13, 5-p-Hydroxymethylphenyl-2-(1-normon-2-yl) oxazole A]	> 80	0.1 (≈ 0.211 µM)	> 128	0.1 (≈ 0.211 µM)	2 (≈ 4.22 µM)	2.5 (≈ 5.28 µM)		0.5 (≈ 1.06 µM)	> 128	> 80	20 (≈ 42.2 µM)	0.625 (≈ 1.32 µM)	≤ 0.01	0.5 (≈ 1.06 µM)	64 (≈ 135 µM)	1.25 (≈ 2.64 µM)	> 80	> 80	10 (≈ 21.1 µM)	40 (≈ 84.5 µM)	MIC [3]: 0.025 µg/mL (≈ 0.0528 µM); MIC ([8]; Haemophilus influenzae, WY21, 18 h): 1 µg/mL (≈ 2.11 µM); MIC [14, 28]: 0.1 µg/mL (≈ 0.211 µM); MIC [21, 29]: 0.25 µg/mL (≈ 0.528 µM)
C/C(=C\c1ncc(C)o1)C[C@@H]1OC[C@H](C[C@@H]2O[C@H]2[C@@H](C)[C@H](C)O)[C@@H](O)[C@H]1O [Example 14, 5-Methyl-2-(1-normon-2-yl) oxazole A]	> 80		> 128		32 (≈ 83.9 µM)	10 (≈ 26.2 µM)	2 (≈ 5.24 µM)	2 (≈ 5.24 µM)	> 128	> 80	> 80	2.5 (≈ 6.55 µM)	0.05 (≈ 0.131 µM)	> 10	> 128	10 (≈ 26.2 µM)	> 80	> 80	> 80	> 80	MIC ([2]; NB12, 144 h): 5 µg/mL (≈ 13.1 µM); MIC [3]: 0.1 µg/mL (≈ 0.262 µM); MIC ([5]; STR.11, 144 h): 2.5 µg/mL (≈ 6.55 µM); MIC [14]: 2.5 µg/mL (≈ 6.55 µM); MIC [21]: 5 µg/mL (≈ 13.1 µM)
